From patent publication US10562869B2, “Oxadiazole compounds” (REMYND NV, priority 2014, dated 2020)

Tests used:
[1] = test system: INS-1E cells; experiment: Cytokine-induced caspase-3/7 activation in INS-1E cells (beta cell stress/apoptosis model, Caspase-Glo 3/7); format: cell-based; conditions: Rattus norvegicus, cytokine mix (IFN-γ, IL-1β, TNF-α), 24 hours, caspase 3/7 activity, read-out: CYT EC50
Excerpt: The INS-1E cell line, a rat insulinoma cell line, has been characterized extensively. INS-1E cells respond to glucose by secreting insulin and, unlike most other immortalized β-cell lines, they do this in a consistent manner over time. The cells are sensitive to hyperglycemia-, free fatty acid (FFA)-, and cytokine-induced stress. Prolonged stress ultimately leads to induction of apoptotic pathways and, if stress is not counter-acted, to apoptosis. Caspase-3 and -7 play a central role downstream where various apoptotic pathways merge. As such, activation (i.e. cleavage) of these caspases forms a relevant primary read-out to evaluate protective activity of compounds against stress-induced apoptosis.
To evaluate the efficacy of different compounds to prevent induction of apoptosis, an in vitro screen was developed in which INS-1E cells were exposed to a cytokine mix (IFN-γ, 5 ng/ml; IL-1β, 20 pg/ml; TNF-α, 0.25 ng/ml). The degree of induction of apoptosis was evaluated using a substrate for cleaved caspase-3 and -7, i.e. a proluminescent caspase-3/7 DEVD aminoluciferin substrate with a thermostable luciferase (Caspase-Glo® 3/7 assay; Promega, cat. G8092).
On day 0, INS-1E cells were plated in a white-walled 96-well microplate (Greiner, cat. 655098) at 20,000 cells per well in 100 μl complete medium (RPMI containing 11 mM glucose supplemented with 5% FCS, 100 IU/ml penicillin, 100 μg/ml streptomycin, 10 mM HEPES, 1 mM Sodium Pyruvate and 50 μM 2-Mercapto-ethanol). On day 2, 100 μl medium containing cytokines and compound dissolved in DMSO was added to the cells. Wells without cytokines containing DMSO and wells with cytokines and DMSO were included to evaluate the degree of caspase 3/7 activation by the cytokine mix. After 24 hours exposure to cytokines and/or compound, Caspase-Glo® 3/7 reagent was added to the cells and caspase activity was determined by measuring luminescence.
To evaluate compound efficacy, the “toxicity window” was calculated by subtracting caspase activity of wells without stressor from activity of wells with stressor but without compound. The amount of caspase activity in the latter wells was normalized to 1 and used as reference. Subsequently, caspase activity in the wells with stressor and varying concentrations of compound was calculated relative to the wells without compound. Plotting caspase activity vs the log 10 of the concentration of compound permitted calculation of the EC50 values for the compounds which typically lied between 0.0001 and 10 μM. Compounds with an EC50<10 μM were considered active.

[2] = test system: M17_3SYN cells; experiment: Paraquat-induced cytotoxicity (LDH) in α-synuclein over-expressing M17_3SYN neuroblastoma cells; format: cell-based, human; conditions: Homo sapiens, Neuroblastoma cell, 48 h, toxicity inhibition (LDH) in M17_3SYN cells challenged with 6 mM paraquat, 2 days; read-out: SYN EC50
Summary of the method: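 Human BE-M17 neuroblastoma cells stably overexpressing wild-type α-synuclein challenged with paraquat (final 6 mM) for 2 days at 37 °C alongside compounds over a concentration range. Cytotoxicity as LDH released relative to total LDH; EC50 from dose-dependent inhibition curve.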

[3] = test system: M17_3TAU(P301L) cells; experiment: Retinoic acid-induced cytotoxicity (LDH) in TAU-P301L expressing M17_3TAU(P301L) neuroblastoma cells; format: cell-based; conditions: Homo sapiens, Neuroblastoma cell, 168 h; toxicity inhibition (LDH) in M17_3TAU(P301L) cells challenged with retinoic acid, 7 days
Summary of the method: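 Cells in 1% FCS medium challenged with RA (3.75 μM added in equal volume of serum-free medium) plus compound for 7 days at 37 °C. Cytotoxicity read as released LDH relative to total LDH; EC50 from dose-dependent reduction in toxicity.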

| SMILES | EC50 [1] [nM] | EC50 [2] [nM] | EC50 [3] [nM] |
| --- | --- | --- | --- |
| CSc1ccc(S(=O)(=O)N2CCN(c3nc(C4(c5cccc(Cl)c5)CC4)no3)CC2)cc1 [Cmpd137, 1-{3-[1-(3-Chloro-phenyl)-cyclopropyl]-[1,2,4]oxadiazol-5-yl}-4-(4-methylsulfanyl-benzenesulfonyl)-piperazine] | 9 | 7 |  |
| CSc1ccc(S(=O)(=O)N2CCN(c3nc(C(F)(F)c4ccc(Cl)cc4)no3)CC2)cc1 [Cmpd145, 1-{3-[(4-Chloro-phenyl)-difluoro-methyl]-[1,2,4]oxadiazol-5-yl}-4-(4-methylsulfanyl-benzenesulfonyl)-piperazine] | 82 | 15 |  |
| COc1ccc(S(=O)(=O)N2CCN(c3nc(C4(c5cccc(Cl)c5)CC4)no3)CC2)cc1 [Cmpd134, 1-{3-[1-(3-Chloro-phenyl)-cyclopropyl]-[1,2,4]oxadiazol-5-yl}-4-(4-methoxy-benzenesulfonyl)-piperazine] | 16 | 2 |  |
| COc1ccc(S(=O)(=O)N2CCN(c3nc(C4(c5ccc(F)cc5)CC4)no3)CC2)cc1 [Cmpd105, 1-{3-[1-(4-Fluoro-phenyl)-cyclopropyl]-[1,2,4]oxadiazol-5-yl}-4-(4-methoxy-benzenesulfonyl)-piperazine] | 27 | 9 |  |
| COc1ccc(S(=O)(=O)N2CCN(c3nc(C(C)(C)c4ccc(F)cc4)no3)CC2)cc1 [Cmpd113, 1-{3-[1-(4-Fluoro-phenyl)-1-methyl-ethyl]-[1,2,4]oxadiazol-5-yl}-4-(4-methoxy-benzenesulfonyl)-piperazine] | 1 | 8 |  |
| CCOc1ccc(S(=O)(=O)N2CCN(c3nc(C4(c5ccc(F)cc5)CC4)no3)CC2)cc1 [Cmpd106, 1-(4-Ethoxy-benzenesulfonyl)-4-{3-[1-(4-fluoro-phenyl)-cyclopropyl]-[1,2,4]oxadiazol-5-yl}-piperazine] | 99 | 65 |  |
| CSc1ccc(S(=O)(=O)N2CCN(c3nc(C4C[C@@H]5CC[C@H]4C5)no3)CC2)cc1 (stereo partly drawn) [Cmpd191, 3-((1S,4R)-bicyclo[2.2.1]heptan-2-yl)-5-(4-((4-(methylthio)phenyl)sulfonyl)piperazin-1-yl)-1,2,4-oxadiazole] | 554 | 109 |  |
| CCOc1ccc(S(=O)(=O)N2CCN(c3nc(C4(c5cccc(Cl)c5)CC4)no3)CC2)cc1 [Cmpd135, 1-{3-[1-(3-Chloro-phenyl)-cyclopropyl]-[1,2,4]oxadiazol-5-yl}-4-(4-ethoxy-benzenesulfonyl)-piperazine] | 129 | 28 |  |
| CSc1ccc(S(=O)(=O)N2CCN(c3nc(C4(c5ccc(Cl)cc5)CC4)no3)CC2)cc1 [Cmpd141, 1-{3-[1-(4-Chloro-phenyl)-cyclopropyl]-[1,2,4]oxadiazol-5-yl}-4-(4-methylsulfanyl-benzenesulfonyl)-piperazine] | 19 | 12 |  |
| CSc1ccc(S(=O)(=O)N2CCN(c3nc(C(C)(C)c4ccc(F)cc4)no3)CC2)cc1 [Cmpd116, 1-{3-[1-(4-Fluoro-phenyl)-1-methyl-ethyl]-[1,2,4]oxadiazol-5-yl}-4-(4-methylsulfanyl-benzenesulfonyl)-piperazine] | 26 | 7 |  |
| CSc1ccc(S(=O)(=O)N2CCN(c3nc(C(F)(F)c4ccc(F)cc4)no3)CC2)cc1 [Cmpd151, 1-{3-[Difluoro-(4-fluoro-phenyl)-methyl]-[1,2,4]oxadiazol-5-yl}-4-(4-methylsulfanyl-benzenesulfonyl)-piperazine] | 41 | 13 |  |
| COc1ccc(S(=O)(=O)N2CCC3(CC2)CN(c2nc(CC(F)(F)F)no2)C3)cc1 [Cmpd214, 5-(7-((4-Methoxyphenyl)sulfonyl)-2,7-diazaspiro[3.5]nonan-2-yl)-3-(2,2,2-trifluoroethyl)-1,2,4-oxadiazole] | 55 | 164 |  |
| COc1ccc(S(=O)(=O)N2CCN(c3nc(C4(c5ccccc5)CC4)no3)CC2)cc1 [Cmpd120, 1-(4-Methoxy-benzenesulfonyl)-4-[3-(1-phenyl-cyclopropyl)-[1,2,4]oxadiazol-5-yl]-piperazine] | 40 | 4 |  |
| COc1ccc(S(=O)(=O)N2CCN(c3nc(C(F)(F)c4ccc(F)cc4)no3)CC2)cc1 [Cmpd146, 1-{3-[Difluoro-(4-fluoro-phenyl)-methyl]-[1,2,4]oxadiazol-5-yl}-4-(4-methoxy-benzenesulfonyl)-piperazine] | 75 | 8 |  |
| CSc1ccc(S(=O)(=O)N2CCC3(CC2)CN(c2nc(CC(F)(F)F)no2)C3)cc1 [Cmpd215, 5-(7-((4-(Methylthio)phenyl)sulfonyl)-2,7-diazaspiro[3.5]nonan-2-yl)-3-(2,2,2-trifluoroethyl)-1,2,4-oxadiazole] | 145 | 274 |  |
| CCOc1ccc(S(=O)(=O)N2CCN(c3nc(C4(c5ccccc5)CC4)no3)CC2)cc1 [Cmpd121, 1-(4-Ethoxy-benzenesulfonyl)-4-[3-(1-phenyl-cyclopropyl)-[1,2,4]oxadiazol-5-yl]-piperazine] | 186 | 10 |  |
| COc1ccc(S(=O)(=O)N2CCN(c3nc(COc4ccc(F)cc4)no3)CC2)cc1 [Cmpd206, 3-((4-Fluorophenoxy)methyl)-5-(4-((4-methoxyphenyl)sulfonyl)piperazin-1-yl)-1,2,4-oxadiazole] | 189 | 22 |  |
| COc1ccc(S(=O)(=O)N2CCN(c3nc(COCC4CC4)no3)CC2)cc1 [Cmpd203, 3-((Cyclopropylmethoxy)methyl)-5-(4-((4-methoxyphenyl)sulfonyl)piperazin-1-yl)-1,2,4-oxadiazole] | 153 | 8 |  |
| O=S(=O)(c1ccc(OC(F)F)cc1)N1CCN(c2nc(C3(c4cccc(Cl)c4)CC3)no2)CC1 [Cmpd136, 1-{3-[1-(3-Chloro-phenyl)-cyclopropyl]-[1,2,4]oxadiazol-5-yl}-4-(4-difluoromethoxy-benzenesulfonyl)-piperazine] | 24 | 8 |  |
| COc1ccc(S(=O)(=O)N2CCN(c3nc(C(C)(C)c4ccnc(C)c4)no3)CC2)cc1 [Cmpd195, 5-(4-((4-Methoxyphenyl)sulfonyl)piperazin-1-yl)-3-(2-(2-methylpyridin-4-yl)propan-2-yl)-1,2,4-oxadiazole] | 52 | 70 |  |
| CSc1ccc(S(=O)(=O)N2CCN(c3nc(C4(c5ccccc5)CC4)no3)CC2)cc1 [Cmpd126, 1-(4-Methylsulfanyl-benzenesulfonyl)-4-[3-(1-phenyl-cyclopropyl)-[1,2,4]oxadiazol-5-yl]-piperazine] | 28 | 7 |  |
| COc1cccc(CCN2CCN(c3nc(CC(F)(F)F)no3)CC2)c1 [Cmpd163, 5-(4-(3-Methoxyphenethyl)piperazin-1-yl)-3-(2,2,2-trifluoroethyl)-1,2,4-oxadiazole] |  |  | 418 |
| COc1cc(CCN2CCN(c3nc(C4(c5ccccc5)CC4)no3)CC2)ccn1 [Cmpd131, 5-(4-(2-(2-Methoxypyridin-4-yl)ethyl)piperazin-1-yl)-3-(1-phenylcyclopropyl)-1,2,4-oxadiazole] |  |  | 135 |
| COc1cccc(CCN2CCN(c3nc(-c4ccc(Cl)cc4)no3)CC2)c1 [Cmpd021, 3-(4-Chlorophenyl)-5-(4-(3-methoxyphenethyl)piperazin-1-yl)-1,2,4-oxadiazole] |  |  | 5 |
